For series [1], the target named is T1, human androgen receptor (hAR) (Homo sapiens, UniProt P10275).
T1 sequence (P10275 1-920): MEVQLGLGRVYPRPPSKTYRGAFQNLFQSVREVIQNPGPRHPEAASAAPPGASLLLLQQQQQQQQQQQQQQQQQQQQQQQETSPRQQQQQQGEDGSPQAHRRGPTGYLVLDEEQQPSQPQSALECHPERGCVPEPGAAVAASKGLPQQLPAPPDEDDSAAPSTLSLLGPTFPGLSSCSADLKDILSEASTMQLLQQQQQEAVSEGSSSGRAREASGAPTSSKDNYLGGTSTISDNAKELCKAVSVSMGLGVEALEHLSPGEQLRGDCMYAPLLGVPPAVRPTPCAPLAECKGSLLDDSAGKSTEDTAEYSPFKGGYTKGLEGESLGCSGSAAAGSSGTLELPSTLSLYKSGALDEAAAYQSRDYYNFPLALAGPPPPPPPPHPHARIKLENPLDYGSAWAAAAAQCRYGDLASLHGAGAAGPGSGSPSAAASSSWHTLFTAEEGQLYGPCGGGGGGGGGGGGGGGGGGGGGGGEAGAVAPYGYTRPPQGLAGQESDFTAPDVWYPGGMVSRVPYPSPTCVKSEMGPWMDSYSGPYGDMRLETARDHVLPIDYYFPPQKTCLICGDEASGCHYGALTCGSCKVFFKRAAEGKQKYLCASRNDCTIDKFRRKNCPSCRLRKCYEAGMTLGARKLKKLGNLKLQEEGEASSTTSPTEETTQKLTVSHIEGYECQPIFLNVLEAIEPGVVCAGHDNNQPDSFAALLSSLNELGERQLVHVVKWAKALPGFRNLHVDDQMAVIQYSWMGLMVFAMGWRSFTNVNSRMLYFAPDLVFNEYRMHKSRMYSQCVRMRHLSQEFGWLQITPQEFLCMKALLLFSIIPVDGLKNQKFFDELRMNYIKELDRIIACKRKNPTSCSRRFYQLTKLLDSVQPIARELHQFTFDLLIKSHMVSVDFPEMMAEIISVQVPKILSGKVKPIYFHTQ
Briefly: AR binding affinity (Ki).

For a further series, the system named is PSA levels. Briefly: PSA in ED patients failing tadalafil (Study GPEC). It counts as in vivo, human. The note with it: for PSA levels: ED patients, alone or with tadalafil, PSA about 2.0 ng/ml or more. From the text:
The results of this study are illustrated in FIG. 7. […] (see FIG. 8 and FIG. 9).

Experimental findings from patent US20180185347A1, “TETRAHYDROCYCLOPENTA[B]INDOLE COMPOUNDS AND PHOSPHODIESTERASE INHIBITORS FOR THE TREATMENT OF THE SIGNS AND SYMPTOMS OF BHP” (Transition Therapeutics (Ireland 2) Limited, priority 2016, published 2018) are described below.

Each structure is given as a SMILES string. Where only a bound is given, the exact number is not on record here.

Take `CC(C)OC(=O)N[C@H]1Cc2c(n(Cc3ccccn3)c3ccc(C#N)cc23)C1` [compound of Formula II, (S)-(7-cyano-4-pyridin-2-ylmethyl-1,2,3,4-tetrahydro-cyclopenta[b]indol-2-yl)-carbamic acid isopropyl ester]: the “binding affinity for hAR compared to other nuclear hormone receptors” value in series [1] is greater than 500 fold. In addition, the PSA levels entry was “significant reduction in PSA levels” with PSA levels (listed as OPK88004) and “decrease in PSA levels” with PSA levels (listed as OPK-88004). In addition, the PSA result in the series with PSA levels (Study GPEC, 1 mg and 5 mg for 12 weeks) is “not associated with increases in PSA”.
